We go through 2 molecules from US20100272710A1, “COMPOSITIONS AND METHODS FOR TREATING AND PREVENTING AGING-ASSOCIATED DISEASES” (priority 2009, published 2010).

Test [1] deals with TXNIP. Put plainly: TXNIP expression in organs of treated mice (Western blot). The class given is in vivo. The note with it: CD1 mice, 10 mg/Kg i.p., 2 days. The protocol: (§1) Tissue distribution of Sirt1 and TXNIP in mice and their regulation by resveratrol and DHEA. Mice CD1 strain were injected (i.p.) with 10 mg/Kg of either resveratrol or DHEA and after 2 days, the animals were sacrificed and organs harvested and processed by Western blot for the expression of Sirt1 and TXNIP. Staining with GAPDH was used as a loading control.
(§2) In order to determine whether the observed effects in vitro could be also valid in vivo, we have subjected the nude mice (CD1 strain, Charles River) to treatment with either resveratrol or DHEA (10 mg/Kg each) for 2 days. The animals were then sacrificed and major organs harvested to analyze expression of Sirt1 and TXNIP by Western blot.
Background: A western blot detects proteins with antibodies after separation by electrophoresis.

Test [2] has as its target glucose 6 phosphate dehydrogenase, G6PD (Homo sapiens, UniProt P11413). Put plainly: G6PD activity in protein extract (NADPH production). The note with it: 30 min at 37° C.; for activity of G6PD: protein extract 100 ug.
Description: Protein extract (100 _g) was incubated with DHEA or resveratrol at the indicated concentrations, after 30 min at 37° C., the activity of G6PD was measured as described in the methods section.
Test [3] has as its system TXNIP. Put plainly: Western blot of TXNIP expression in aortic smooth muscle cells. Format: cell-based. The protocol:
(§3) Effects of limited glucose availability, resveratrol and DHEA on expression of TXNIP and Sirt1 in normal cells. Aortic smooth muscle cells (4A) and human embryonic stem cells (4B) were treated as described in FIG. 1 for cancer cells. Expression Sirt1 and TXNIP were analyzed by Western blot using specific antibodies. Antibody to GAPDH was used as loading control. (Glc: glucose; Resv: Resveratrol).
(§4) In order to obtain information on the physiological relevance of targeting Sirt1 and TXNIP in normal tissues, we investigated the effect of limited glucose availability, resveratrol and DHEA in differentiated aortic smooth muscle cells, and non-differentiated, human embryonic stem cells.

For test [4], the system named is Sirt1. Put plainly: Sirt1 expression in organs of treated mice (Western blot). The class given is in vivo. The note with it: CD1 mice, 10 mg/Kg i.p., 2 days. The protocol: as §1, §2
In test [5] the test system is Sirt1. The class given is cell-based. The note with it: aortic smooth muscle cells, Western blot. The method, then:
as §3, §4

In test [6] the test system is Sirt1. The class given is cell-based. To be noted: increasing concentrations, Western blot. The method, then:
(§5) SaOS2 cells were incubated in the presence of reduced glucose levels in the culture medium for 48 hours. Expression of TXNIP and Sirt1 were determined by Western blot using specific antibodies. Antibody to _-Actin was used as a loading control.
(§6) The RGC (4C) and SaOS2 (4D) cells were subjected to treatment with increasing concentrations of resveratrol (Resv.) for 48 hours followed by Western blot as described in Panel A.
(§7) SaOS2 cells were treated with increasing amounts of DHEA and probed for expression of Sirt1 and TXNIP; beta-actin was used as a loading control.
(§8) The effects of limited glucose availability (used here to mimic the effect of calorie restriction), resveratrol (an activator of Sirt1) and DHEA (used for hormone replacement therapy), on the expression of TXNIP and Sirt1 were determined by Western blot using specific antibodies to the corresponding proteins (FIG. 4).

For the next test, the system named is AMPK. Put plainly: Phosphorylation of AMPK in cells (Western blot, anti-phospho-AMPK Thr172). The class given is cell-based. To be noted: for AMPK phosphorylation: osteosarcoma cells SaOS2, 48 hours. The method, then:
SaOS2 cells were treated with increasing concentrations of resveratrol for 48 hours, after what, proteins were extracted and probed either with anti-phospho-AMPK (Thr172), or with antibody to AMPK.
RGC cells were incubated with 20 or 100 μM resveratrol or DHEA 100 μM for 48 hours, and then probed for phosphor-AMPK and AMPK as described above.
However, the relevance of this action to the regulation of TXNIP by resveratrol and the possible implication of DHEA in regulating this pathway are not yet investigated. […] Further confirmation of this link will help establish TXNIP inhibition as an important determinant for evaluating the efficacy of putative anti-aging interventions.

Test [7] relates to TXNIP. Put plainly: Western blot of TXNIP expression in cancer cells (SaOS2, RGC). Format: cell-based. To be noted: for expression of TXNIP: increasing concentrations, Western blot. The method, then:
as §5, §6, §7
The cells were treated with different concentrations of glucose with or without DHEA. After 48 hours in cultures, proteins were separated by electrophoresis and probed for TXNIP. Staining with beta-actin antibody was used as a loading control.
as §8

Test [8] has as its system Sirt1. Put plainly: Western blot of Sirt1 expression in human embryonic stem cells BG01V. Format: cell-based. The method, then: as §3
(§9) To test whether cellular proliferative capacity may account for this difference, we measured expression of Sirt1 and TXNIP in embryonic stem cells known for rapid self renewal ability. The human embryonic stem cells, BG01V, were subjected to glucose restriction or treatment with either resveratrol or DHEA under similar conditions to those described in FIG. 4. […] In contrast, the consistent inhibition of TXNIP by limited glucose availability in cancer cells as well as in differentiated smooth muscle cells and non-differentiated stem cells, is indicative of a potential role of this gene in mediating the anti-aging action of calorie restriction.

Test [9] deals with TXNIP. Put plainly: Western blot of TXNIP expression in human embryonic stem cells BG01V. The class given is cell-based. The method, then: as §3, §9
The mark [10] stands for this setting: retinal glial cells (RGC), 48 hours.

Structures are written as SMILES. Where two headings read alike, the source gives them in different places.

Chain of glucose 6 phosphate dehydrogenase, G6PD (P11413 whole entry): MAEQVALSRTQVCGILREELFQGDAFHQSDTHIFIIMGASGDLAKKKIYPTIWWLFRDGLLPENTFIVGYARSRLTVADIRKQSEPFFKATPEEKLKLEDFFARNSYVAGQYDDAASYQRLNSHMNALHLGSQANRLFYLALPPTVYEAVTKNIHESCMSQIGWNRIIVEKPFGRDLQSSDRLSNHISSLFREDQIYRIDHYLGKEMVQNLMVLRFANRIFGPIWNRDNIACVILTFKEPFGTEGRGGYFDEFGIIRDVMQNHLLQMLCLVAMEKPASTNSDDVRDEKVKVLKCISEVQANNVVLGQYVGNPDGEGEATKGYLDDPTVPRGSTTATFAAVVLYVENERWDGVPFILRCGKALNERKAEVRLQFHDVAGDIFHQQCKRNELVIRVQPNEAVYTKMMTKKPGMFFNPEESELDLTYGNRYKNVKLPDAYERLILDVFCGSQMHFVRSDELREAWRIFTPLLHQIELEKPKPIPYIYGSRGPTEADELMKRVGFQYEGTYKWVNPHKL

Regarding `C[C@]12CC[C@H](O)CC1=CC[C@@H]1[C@@H]2CC[C@]2(C)C(=O)CC[C@@H]12` [DHEA, dehydroepiandrosterone], the “expression of TXNIP in the lung” value in the test with TXNIP [1] is given as “inhibited the expression”. Further, in the test on TXNIP [1], the “expression of TXNIP in the muscle” value is recorded as “inhibitory effect”. For the same molecule, the “activity of G6PD” value in [2] was “strongly inhibited and in a dose dependent manner”. The “inhibitory effect on G6PD observed” value in [2] (protein extract, assay based on production of NADPH) was found to be 50%. The “expression of TXNIP” value is listed as “without effect” in the test with TXNIP [3], “decreased expression” with TXNIP [7] (SaOS2 cells) and “none of these genes was affected” in the test on TXNIP [9]. Further, in the test with Sirt1 [4], the “expression of Sirt1 in most tissues” value is listed as “not significantly affect”. Besides, the results for the “expression of Sirt1” value with Sirt1 [5], in the test with Sirt1 [6] (SaOS2 cells) and with Sirt1 [8] were “without effect”, “decreased expression” and “none of these genes was affected”, respectively. Further, the AMPK phosphorylation result in the test on AMPK is given as “without effect”. For the same molecule, in the test with TXNIP [7] (cells with different concentrations of glucose with or without DHEA, 48 hours), the “effects of glucose on TXNIP expression after pre-treatment” value is on record as “almost completely blocked”.
As for `Oc1ccc(C=Cc2cc(O)cc(O)c2)cc1` [resveratrol], in the test on TXNIP [1], the “expression of TXNIP in the lung” value is reported as “inhibited the expression”. In the test with TXNIP [1], the “expression of TXNIP in the muscle” value was “only DHEA had an inhibitory effect in the muscle”. In addition, in test [2], the “activity of G6PD” value is recorded as “no effect”. In addition, the “expression of TXNIP” value in the test on TXNIP [3] was “inhibited the expression of TXNIP in a dose dependent manner”; with TXNIP [7] (RGC cells, 48 hours), “stimulatory action at low concentrations and inhibition at higher ones”; with TXNIP [7] (SaOS2 cells) it was “stimulatory action at low concentrations and inhibition at higher ones”; in the test on TXNIP [9], “none of these genes was affected”. For the same molecule, in the test with Sirt1 [4], the “expression of Sirt1 in most tissues” value was “not significantly affect”. The “expression of Sirt1” value with Sirt1 [5] is on record as “no significant changes in Sirt1 expression”; with Sirt1 [6] (RGC cells, 48 hours) it was “suppressed the expression”; with Sirt1 [6] (SaOS2 cells) it was “suppressed the expression”; in the test on Sirt1 [8] it was “none of these genes was affected”. Further, the AMPK phosphorylation result in the test on AMPK is listed as “induced AMPK phosphorylation”. The “AMPK phosphorylation (p-AMPK)” value in the test with AMPK (setting [10]) is recorded as “readily activates”. The “expression of AMPK” value in the test on AMPK (setting [10]) is on record as “without affecting expression”.
